13 compounds from PubChem BioAssay (NCI) can be followed below.

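96-well plates; 48 h exposure; 5 concentrations. Endpoints by linear interpolation between flanking doses. Not reached: highest tested concentration assigned. TGI denotes the concentration required for complete inhibition of growth.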 A value given as a limit tells only on which side of the number the result lay.

What all share (assay): DTP human tumour cell line panel, 48 h
Test [1] has as its system SF-539 CNS.
Test [2] relates to NCI-H460 lung.
Test [3] concerns MOLT-4 leukemia.
The test system of test [4] is SK-MEL-2 melanoma.
In test [5] the test system is MALME-3M melanoma.
Test [6] relates to SF-295 CNS.
In test [7] the test system is MDA-MB-435.
The subject of test [8] is PC-3 prostate.
Test [9] has as its system SNB-19 CNS.
Test [10] concerns OVCAR-3 ovarian.
For test [11], the system named is HOP-62 NSCLC.

For the compound `O=C1CC(=Nc2ccc(Cl)cc2)C(c2ccccc2)N1c1ccccc1` (stereo unspecified), the TGI in test [1] is 94.8 µM; in test [2] it was over 100 µM; in [3] it was over 100 µM; in test [4], 7.92 µM; in test [5], 90.8 µM; in test [6], over 100 µM. Besides, the TGI in test [7] is 6.32 µM; in test [8], over 100 µM; in test [9], over 100 µM; in test [10], 14.5 µM; in test [11], over 100 µM.
As for `CCOCc1nc2c(OC)cc(-c3nc4ccc(N5CCN(C)CC5)cc4[nH]3)c(OC)c2[nH]1`, the TGI in test [1] was 36.1 µM; in test [2] it was 65.1 µM; in [3], 76.6 µM; in test [4] it was 40.6 µM; in test [5], 33.5 µM; in test [6], 36.8 µM. In addition, the TGI in test [7] was 45.8 µM; in test [8], over 100 µM; in test [9], over 100 µM; in test [10], 70.6 µM; in test [11], 62.8 µM.
For the compound `O=C1CSC(c2cccc(Oc3ccccc3)c2)N1c1ccc(Cl)cc1` (stereo unspecified), the TGI in test [1] is over 100 µM; in test [2] it was 41.1 µM; in test [3], 56.1 µM; in test [4], 40.2 µM; in [5], 56.7 µM; in test [6], over 100 µM. The TGI in test [7] was 87.7 µM; in [8], over 100 µM; in test [9], over 100 µM; in test [10] it was over 100 µM; in test [11], over 100 µM.
With `Nc1nc(N)c2ncn(-c3ccc(Cl)cc3)c2n1`, the TGI in [1] was 80.5 µM; in test [4], over 100 µM; in [5] it was over 100 µM; in test [6], over 100 µM; in test [7], over 100 µM; in test [8], over 100 µM. Further, the TGI in [10] and in test [11] was over 100 µM throughout.
As to `CCN(CC)CCNc1nc2ccc([N+](=O)[O-])cc2[n+]([O-])n1`, the TGI in [1] was 54.2 µM; in test [2] it was 56.8 µM; in test [3], 50.6 µM; in test [4], 35.3 µM; in test [5], 4.28 µM; in [6], 82.1 µM. Also, the TGI is 29.5 µM in test [7], 75.3 µM in test [8], over 100 µM in [9] and over 100 µM in test [10].
Regarding `Cc1ccc(/C=C2\CCCc3ccccc3C2=O)cc1`, the concentration for total growth inhibition (TGI) in [1] came out at 37.5 µM; in [2], 32.5 µM; in test [3], 52.8 µM; in test [4] it was 9.07 µM; in [5], 34.5 µM; in [6], 16.6 µM. Besides, the TGI in [7] is 8.46 µM; in [8] it was over 100 µM; in test [9], 89.2 µM; in test [10], 50.8 µM; in [11], 60.6 µM.
Consider `NC(Cc1ccccc1)C(=O)N[C@H]1c2ccsc2/C(=N/O)[C@H]1O` (stereo partly specified), for which the TGI in test [1], in test [2], in [4], in test [5], in test [6] and in test [7] was over 100 µM in each case. Besides, the TGI in test [8], in [10] and in [11] was over 100 µM in each case.
On to `COc1cccc(-c2ccc3c4c2O[C@H]2C(=O)CC[C@@]5(O)[C@@H](C3)N(CC3CC3)CC[C@]425)c1`, for which the TGI in test [1] was determined as 29 µM; in test [2], 50.7 µM; in [3] it was 24.7 µM; in test [4], 34.1 µM; in test [5], 36.4 µM; in [6], 32.6 µM. Moreover, the TGI in [7] came out at 25.6 µM; in [8], 29.2 µM; in [9] it was 42.2 µM; in test [10], 27.6 µM; in test [11], 35.4 µM.
In the case of `O=c1[nH]nc(-c2ccccc2)c2[nH]c3c4ccccc4ccc3c12`, the TGI was 3.17 µM in test [1]; over 100 µM in test [2]; over 100 µM in test [3]; over 100 µM in [4]; over 100 µM in test [5]; 0.673 µM in test [7]. Moreover, the TGI in [8], in test [9] and in test [11] was over 100 µM each time.
`CC(C)[Si](OC1=C(C(=O)N(C)c2cccc(Cl)c2)CCCC1)(C(C)C)C(C)C`: the TGI in test [1] was 40.4 µM; in [2], 32.8 µM; in test [3] it was over 100 µM; in test [4], 33.2 µM; in [5] it was 24.9 µM; in [6], 23.3 µM. Further, the TGI in test [7] is 29 µM; in [8], 24 µM; in test [9] it was 31 µM; in [10] it was 27.6 µM; in [11], 32.4 µM.
Regarding `CC1OC(OC2C(O[C@H]3CC[C@@]4(C)C(=CC[C@H]5[C@@H]6C[C@@H]7O[C@]8(CC[C@@H](CO)CO8)[C@@H](C)[C@@H]7[C@@]6(C)CC[C@@H]54)C3)OC(CO)C(O)C2OC2OC(CO)C(O)C(O)C2O)C(O)C(O)C1O` (stereo partly specified), the TGI in test [1] worked out at 3.07 µM; in test [2], 3.18 µM; in [4], 3.7 µM; in test [5], 3.34 µM; in test [7], 3.48 µM; in test [8], 3.33 µM. The TGI is 3.96 µM in [9] and 3.21 µM in test [11].
Turning to `C=CC(CCc1ccc(C(=O)OCC)cc1)c1c(N)nc(N)[nH]c1=O` (stereo unspecified), the TGI in test [1], in test [2], in [3], in test [4], in test [5] and in [6] was over 100 µM each time. In addition, the TGI in test [7], in [8], in test [9], in [10] and in test [11] was over 100 µM throughout.
Turning to `C[C@]12CCC(=O)O[C@H]1CCCCO2`, the TGI in [1], in [2], in [3], in test [4], in test [5] and in test [6] was over 100 µM throughout. Moreover, the TGI in test [7], in test [8], in test [10] and in [11] was over 100 µM in each case.
